Results as given in patent publication US10508104B2, “6-hydroxy-5-(phenyl/heteroarylsulfonyl)pyrimidin-4(1H)-one as APJ agonists” (Bristol-Myers Squibb Company, priority 2016, dated 2019).

Biological target: human APJ receptor (Homo sapiens (Human), UniProt P35414)
Test: Intracellular cAMP accumulation assay (APJ hcAMP, HTRF)
Type: cell-based
Conditions: HEK293 cells stably expressing human APJ receptor; inhibition of forskolin-mediated cAMP production; read-out: Human APJ cAMP EC50 Potency range
Outline: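 HEK293 cells stably expressing human APJ, 5,000 per well, incubated 30 min at rt with compound, […] and 2 μM forskolin. cAMP measured by HTRF against a cAMP standard curve as inhibition of forskolin-driven production. EC50 from variable-slope sigmoidal fit.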

human APJ receptor, sequence (P35414 whole entry): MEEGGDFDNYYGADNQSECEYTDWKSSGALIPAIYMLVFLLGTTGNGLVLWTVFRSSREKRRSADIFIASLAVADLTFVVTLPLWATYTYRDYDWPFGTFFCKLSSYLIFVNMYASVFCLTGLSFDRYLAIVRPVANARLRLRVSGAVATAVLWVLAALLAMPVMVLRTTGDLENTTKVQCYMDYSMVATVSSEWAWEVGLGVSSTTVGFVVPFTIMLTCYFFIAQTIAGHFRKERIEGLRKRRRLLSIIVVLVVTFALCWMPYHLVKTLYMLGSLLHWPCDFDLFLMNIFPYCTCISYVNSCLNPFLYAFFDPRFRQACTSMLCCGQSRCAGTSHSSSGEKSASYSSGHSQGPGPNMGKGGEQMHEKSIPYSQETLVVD

EC50, 0.01 to 10 nM:
CC[C@@H](c1cccc(C#N)c1)n1c(CC2CC2)nc(=O)c(S(=O)(=O)c2ccc(-c3ccncc3C(N)=O)cc2)c1O [Example 470, 4-[4-({1-[(1S)-1-(3-cyanophenyl)propyl]-2-(cyclopropylmethyl)-6-hydroxy-4-oxo-1,4-dihydropyrimidin-5-yl}sulfonyl)phenyl] pyridine-3-carboxamide]
CC[C@@H](c1cccc(C#N)c1)n1c(CC2CC2)nc(=O)c(S(=O)(=O)c2ccc(-c3cnccc3C#N)cc2)c1O [Example 471, 3-[4-({1-[(1S)-1-(3-cyanophenyl)propyl]-2-(cyclopropylmethyl)-6-hydroxy-4-oxo-1,4-dihydropyrimidin-5-yl}sulfonyl)phenyl] pyridine-4-carbonitrile]
CC[C@@H](c1cccc(C#N)c1)n1c(CC2CC2)nc(=O)c(S(=O)(=O)c2ccc(-c3cnccc3C(N)=O)cc2)c1O [Example 472, 3-[4-({1-[(1S)-1-(3-cyanophenyl)propyl]-2-(cyclopropylmethyl)-6-hydroxy-4-oxo-1,4-dihydropyrimidin-5-yl}sulfonyl)phenyl] pyridine-4-carboxamide]
CC[C@@H](c1cc(F)cc(C#N)c1)n1c(CC2CC2)nc(=O)c(S(=O)(=O)c2ccc(-c3ccc(F)cc3C(N)=O)cc2)c1O [Example 473, 4′-({1-[(1S)-1-(3-cyano-5-fluorophenyl)propyl]-2-(cyclopropylmethyl)-6-hydroxy-4-oxo-1,4-dihydropyrimidin-5-yl}sulfonyl)-4-fluoro-[1,1′-biphenyl]-2-carboxamide]
CC[C@@H](c1cccc(C#N)c1)n1c(CC2CC2)nc(=O)c(S(=O)(=O)c2ccc(-c3ccncc3C#N)cc2)c1O [Example 474, 4-[4-({1-[(1S)-1-(3-cyanophenyl)propyl]-2-(cyclopropylmethyl)-6-hydroxy-4-oxo-1,4-dihydropyrimidin-5-yl}sulfonyl)phenyl] pyridine-3-carbonitrile]
CC[C@@H](c1cc(F)cc(C#N)c1)n1c(CC2CC2)nc(=O)c(S(=O)(=O)c2ccc(-c3ccncc3C)cc2)c1O [Example 475, 3-[(1S)-1-[2-(cyclopropylmethyl)-6-hydroxy-5-[4-(3-methylpyridin-4-yl)benzenesulfonyl]-4-oxo-1,4-dihydropyrimidin-1-yl]propyl]-5-fluorobenzonitrile]
CCCCc1nc(=O)c(S(=O)(=O)c2ccc(-c3ccnc(F)c3C)cc2)c(O)n1[C@H](c1cccc(C#N)c1)C1CC1 [Example 476, 3-[(S)-{2-butyl-5-[4-(2-fluoro-3-methylpyridin-4-yl)benzenesulfonyl]-6-hydroxy-4-oxo-1,4-dihydropyrimidin-1-yl}(cyclopropyl)methyl] benzonitrile]
CCCCc1nc(=O)c(S(=O)(=O)c2ccc(-c3ccc(F)cc3C(N)=O)cc2)c(O)n1[C@H](c1cccc(C#N)c1)C1CC1 [Example 477, 4′-({2-butyl-1-[(S)-(3-cyanophenyl)(cyclopropyl)methyl]-6-hydroxy-4-oxo-1,4-dihydropyrimidin-5-yl}sulfonyl)-4-fluoro-[1,1′-biphenyl]-2-carboxamide]
C/C=C(/c1cccc(C#N)c1)n1c(CCCC)nc(=O)c(S(=O)(=O)c2ccc(-c3ccncc3C)cc2)c1O [Example 478, 3-[(1Z)-1-{2-butyl-6-hydroxy-5-[4-(3-methylpyridin-4-yl)benzenesulfonyl]-4-oxo-1,4-dihydropyrimidin-1-yl}prop-1-en-1-yl]benzonitrile]
CCCCc1nc(=O)c(S(=O)(=O)c2ccc(-c3ccc(F)nc3C)cc2)c(O)n1[C@H](c1cccc(C#N)c1)C1CC1 [Example 479, 3-[(S)-{2-butyl-5-[4-(6-fluoro-2-raethylpyridin-3-yl)benzenesulfonyl]-6-hydroxy-4-oxo-1,4-dihydropyrimidin-1-yl}(cyclopropyl)methyl] benzonitrile]
CCCCc1nc(=O)c(S(=O)(=O)c2ccc(-c3cccn(C)c3=O)cc2)c(O)n1[C@H](c1cccc(C#N)c1)C1CC1 [Example 480, 3-[(S)-{2-butyl-6-hydroxy-5-[4-(1-methyl-2-oxo-1,2-dihydropyridin-3-yl)benzenesulfonyl]-4-oxo-1,4-dihydropyrimidin-1-yl}(cyclopropyl)methyl] benzonitrile]
CCCCc1nc(=O)c(S(=O)(=O)c2ccc(-c3ccccc3C(=O)OC)cn2)c(O)n1[C@@H](CC)c1cccc(C#N)c1 [Example 481, methyl 2-[6-({2-butyl-1-[(1S)-1-(3-cyanophenyl)propyl]-6-hydroxy-4-oxo-1,4-dihydropyrimidin-5-yl}sulfonyl)pyridin-3-yl]benzoate]
CCCCc1nc(=O)c(S(=O)(=O)c2ccc(-c3ccccc3C)cn2)c(O)n1[C@@H](CC)c1cccc(C#N)c1 [Example 482, 3-[(1S)-1-(2-butyl-6-hydroxy-5-{[5-(2-methy!phenyl)pyridin-2-yl]sulfonyl}-4-oxo-1,4-dihydropyrimidin-1-yl)propyl]benzonitrile]
C/C=C(/c1cccc(C#N)c1)n1c(CCCC)nc(=O)c(S(=O)(=O)c2ccc(-c3ccnc(F)c3C)cc2)c1O [Example 483, 3-[(1Z)-1-{2-butyl-5-[4-(2-fluoro-3-methylpyridin-4-yl)benzenesulfonyl]-6-hydroxy-4-oxo-1,4-dihydropyrimidin-1-yl}prop-1-en-1-yl]benzonitrile]
CCCCc1nc(=O)c(S(=O)(=O)c2ccc(-c3cccnc3C)cc2)c(O)n1[C@H](c1cccc(C#N)c1)C1CC1 [Example 484, 3-[(S)-{2-butyl-6-hydroxy-5-[4-(2-methyipyridin-3-yl)benzenesulfonyl]-4-oxo-1,4-dihydropyrimidin-1-yl}(cyclopropyl)methyl] benzonitrile]
CCCCc1nc(=O)c(S(=O)(=O)c2ccc(-c3cccn(C)c3=O)cn2)c(O)n1[C@@H](CC)c1cccc(C#N)c1 [Example 485, 3-[(1S)-1-[2-butyl-6-hydroxy-5-({1′-methyl-2′-oxo-1′,2′-dihydro-[3,3′-bipyridine]-6-yl}sulfonyl)-4-oxo-1,4-dihydropyrimidin-1-yl]propyl]benzonitrile]
CC[C@@H](c1cccc(C#N)c1)n1c(CC2CC2)nc(=O)c(S(=O)(=O)c2ccc(-c3cccnc3C(N)=O)cc2)c1O [Example 486, 3-[4-({1-[(1S)-1-(3-cyanophenyl)propyl]-2-(cyclopropylmethyl)-6-hydroxy-4-oxo-1,4-dihydropyrimidin-5-yl}sulfonyl)phenyl] pyridine-2-carboxamide]
CCCCc1nc(=O)c(S(=O)(=O)c2ccc(-c3ccncc3C)cc2)c(O)n1[C@H](c1cccc(C#N)c1)C1CC1 [Example 487, 3-[(S)-{2-butyl-6-hydroxy-5-[4-(3-methylpyridin-4-yl)benzenesulfonyl]-4-oxo-1,4-dihydropyrimidin-1-yl}(cyclopropyl)methyl] benzonitrile]
CC[C@@H](c1cc(F)cc(C#N)c1)n1c(CC2CC2)nc(=O)c(S(=O)(=O)c2ccc(-c3ccnc(F)c3C)cc2)c1O [Example 488, 3-[(1S)-1-[2-(cyclopropylmethyl)-5-[4-(2-fluoro-3-methylpyridin-4-yl)benzenesulfonyl]-6-hydroxy-4-oxo-1,4-dihydropyrimidin-1-yl]propyl]-5-fluorobenzonitrile]
CCCCc1nc(=O)c(S(=O)(=O)c2ccc(-c3ccccc3C(=O)N3CCOCC3)cc2)c(O)n1[C@@H](CC)c1cccc(C#N)c1 [Example 489, 3-[(1S)-1-(2-butyl-6-hydroxy-5-{[2′-(morpholine-4-carbonyl)-[1,1′-biphenyl]-4-yl)sulfonyl}-4-oxo-1,4-dihydropyrimidin-1-yl)propyl]benzonitrile]
Cn1cccc(-c2ccc(S(=O)(=O)c3c(O)n([C@H](c4cccc(C#N)c4)C4CC4)c(CC4CC4)nc3=O)cc2)c1=O [Example 490, 3-[(S)-cyclopropyl[2-(cyclopropylmethyl)-6-hydroxy-5-[4-(1-methyl-2-oxo-1,2-dihydropyridin-3-yl)benzenesulfonyl]-4-oxo-1,4-dihydropyrimidin-1-yl]methyl]benzonitrile]
CCCCc1nc(=O)c(S(=O)(=O)c2ccc(-c3ccccc3C)cc2)c(O)n1[C@@H](CC)c1cccc(C#N)c1 [Example 491, 3-[(1S)-1-[2-butyl-6-hydroxy-5-({2′-methyl-[1,1′-biphenyl]-4-yl}sulfonyl)-4-oxo-1,4-dihydropyrimidin-1-yl]propyl]benzonitrile]
CCCCc1nc(=O)c(S(=O)(=O)c2ccc(-c3cccc(C#N)c3C)cc2)c(O)n1[C@@H](CC)c1cccc(C#N)c1 [Example 492, 4′-({2-butyl-1-[(1S)-1-(3-cyanophenyl)propyl]-6-hydroxy-4-oxo-1,4-dihydropyrimidin-5-yl}sulfonyl)-2-methyl-[1,1′-biphenyl]-3-carbonitrile]
CCCCc1nc(=O)c(S(=O)(=O)c2ccc(-c3cc(C#N)ccc3C)cc2)c(O)n1[C@@H](CC)c1cccc(C#N)c1 [Example 493, 4′-({2-butyl-1-[(1S)-1-(3-cyanophenyl)propyl]-6-hydroxy-4-oxo-1,4-dihydropyrimidin-5-yl}sulfonyl)-6-methyl-[1,1′-biphenyl]-3-carbonitrile]
CCCCc1nc(=O)c(S(=O)(=O)c2ccc(-c3ccc(F)cc3C(N)=O)cc2)c(O)n1[C@@H](CC)c1cccc(C#N)c1 [Example 494, 4′-({2-butyl-1-[(1S)-1-(3-cyanophenyl)propyl]-6-hydroxy-4-oxo-1,4-dihydropyrimidin-5-yl}sulfonyl)-4-fluoro-[1,1′-biphenyl]-2-carboxamide]
